Assay results as given in patent US20220372031A1, “NOVEL TRICYCLIC AROMATIC HETEROCYCLIC COMPOUND, PREPARATION METHOD THEREFOR, PHARMACEUTICAL COMPOSITION AND APPLICATION THEREOF” (SHANGHAI LONGWOOD BIOPHARMACEUTICALS CO., LTD., priority 2019, published 2022).

These compounds were tested against T1, PD-1/PD-L1 (Homo sapiens, UniProt Q9NZQ7) (assay: PD-1/PD-L1 homogeneous time-resolved fluorescence (HTRF) binding assay). Settings: PD-1/PD-L1 HTRF binding, ~3 nM PD1, 10 nM PD-L1, 25° C., PBS pH 7.4.
T1 construct: Recombinant human PD-L1 protein (19-238) with a His-tagged at the C-terminus; purchased AcroBiosystems PD1-H5229 (PD-L1); PD1-H5257 (PD-1)
Protocol: Assays were performed in standard black 384-well polystyrene plates and a final volume was 20 μL. The inhibitor was first serially diluted with DMSO and added to the wells of the plate, followed by the addition of other reaction components. The final concentration of DMSO in the assay was 1%. Assays were performed at 25° C. in PBS buffer (pH 7.4) containing 0.05% Tween-20 and 0.1% BSA. Recombinant human PD-L1 protein (19-238) with a His-tagged at the C-terminus was purchased from AcroBiosystems (PD1-H5229). Recombinant human PD-1 protein (25-167) with an Fc tag at the C-terminus was also purchased from AcroBiosystems (PD1-H5257). The PD-L1 and PD-1 proteins were diluted in assay buffer and then […] of the solution was extracted and added to the wells of the plate. Plates were centrifuged and proteins and inhibitors were preincubated for 40 minutes. After incubation, 0.1 μl of HTRF detection buffer containing europium […] labeled anti-human IgG (PerkinElmer-AD0212), Fc-specific and anti-His SureLight®-Allophycocyanin (APC, PerkinElmer-AD0059H) conjugated antibodies was added. After centrifugation, the plates were incubated at 25° C. for 60 minutes. Data was read in a PHERAstar FS plate reader (665 nm/620 nm ratio). Final concentrations in the assay were ˜3 nM PD1, 10 nM PD-L1, 1 nM europium anti-human IgG, and 20 nM anti-His-allophycocyanin. Activity data were fitted using GraphPad Prism 5_0 software to derive IC50 values for inhibitors.

T1 sequence (Q9NZQ7 19-238): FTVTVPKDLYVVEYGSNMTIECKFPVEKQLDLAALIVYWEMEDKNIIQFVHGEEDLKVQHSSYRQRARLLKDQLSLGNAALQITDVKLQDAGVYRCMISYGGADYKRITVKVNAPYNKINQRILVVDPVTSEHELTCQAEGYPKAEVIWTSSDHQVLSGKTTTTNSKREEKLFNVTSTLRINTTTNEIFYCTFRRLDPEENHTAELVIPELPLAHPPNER

| IC50 | SMILES |
| --- | --- |
| ≤ 10 nM | N#Cc1c2c(cc3nc(-c4cccc(-c5cccc(Nc6nccc7cc(CN8CC[C@@H](O)C8)cnc67)c5Cl)c4Cl)oc13)[C@@H](NCC(=O)NS(=O)(=O)C1CC1)CC2 [Compound 042] |
| 10 to 100 nM | CCOC(=O)CN[C@H]1CCc2c1cc1nc(-c3cccc(-c4cccc(Nc5nccc6cc(CN7CC[C@@H](O)C7)cnc56)c4Cl)c3Cl)oc1c2C#N [Compound 043] |
| ≤ 10 nM | Cc1c(-c2nc3cc4c(c(C#N)c3o2)CC[C@H]4N2CC[C@@H](C(=O)O)C2)cccc1-c1cccc(Nc2nc(C(F)F)nc3cc(CN4CC[C@@H](O)C4)cnc23)c1Cl [Compound 081] |
| ≤ 10 nM | Cc1c(Nc2nc(C(F)F)nc3cc(CN4CC[C@@H](O)C4)cnc23)cccc1-c1cccc(-c2nc3cc4c(c(C#N)c3o2)CC[C@H]4N2CC[C@@H](C(=O)O)C2)c1Cl [Compound 082] |
| ≤ 10 nM | N#Cc1c2c(cc3nc(-c4cccc(-c5cccc(Nc6nc(C(F)F)nc7cc(CN8CC[C@@H](O)C8)cnc67)c5Cl)c4Cl)oc13)[C@H](N1CC[C@@H](C(=O)O)C1)CC2 [Compound 083] |
| ≤ 10 nM | COc1nc(-c2cccc(-c3cccc(-c4nc5cc6c(c(C#N)c5o4)CC[C@H]6N4CC[C@@H](C(=O)NS(=O)(=O)C5(C)CC5)C4)c3C)c2C)cnc1CN1CC[C@@H](O)C1 [Compound 084] |
| ≤ 10 nM | COc1nc(-c2cccc(-c3cccc(-c4nc5cc6c(c(C#N)c5o4)CC[C@H]6N4CC[C@@H](C(=O)NS(=O)(=O)C5(C)CC5)C4)c3Cl)c2Cl)cnc1CN1CC[C@@H](O)C1 [Compound 086] |
| ≤ 10 nM | N#Cc1c2c(cc3nc(-c4cccc(-c5cccc(Nc6nc(C(F)F)nc7cc(CN8CC[C@@H](O)C8)cnc67)c5Cl)c4Cl)oc13)[C@H](N1CC[C@@H](C(=O)NS(=O)(=O)C3CC3)C1)CC2 [Compound 087] |
| ≤ 10 nM | CC1(S(=O)(=O)NC(=O)[C@@H]2CCN([C@@H]3CCc4c3cc3nc(-c5cccc(-c6cccc(Nc7nc(C(F)F)nc8cc(CN9CC[C@@H](O)C9)cnc78)c6Cl)c5Cl)oc3c4C#N)C2)CC1 [Compound 088] |
| ≤ 10 nM | COc1nc(-c2cccc(-c3cccc(-c4nc5cc6c(c(C#N)c5o4)CC[C@H]6N4CC[C@@H](C(=O)O)C4)c3Cl)c2Cl)cnc1CN1CC[C@@H](O)C1 [Compound 162] |
| ≤ 10 nM | COc1nc(-c2cccc(-c3cccc(-c4nc5cc6c(c(C#N)c5o4)CC[C@H]6N4CC[C@@H](C(=O)O)C4)c3Cl)c2C)cnc1CN1CC[C@@H](O)C1 [Compound 175] |
| ≤ 10 nM | COc1nc(-c2cccc(-c3cccc(-c4nc5cc6c(c(C#N)c5o4)CC[C@H]6N4CC[C@@H](C(=O)O)C4)c3C)c2Cl)cnc1CN1CC[C@@H](O)C1 [Compound 182] |
| ≤ 10 nM | COc1nc(-c2cccc(-c3cccc(-c4nc5cc6c(c(C#N)c5o4)CC[C@H]6N4CC[C@@H](C(=O)NS(=O)(=O)C5CC5)C4)c3Cl)c2C)cnc1CN1CC[C@@H](O)C1 [Compound 231] |
| ≤ 10 nM | COc1nc(-c2cccc(-c3cccc(-c4nc5cc6c(c(C#N)c5o4)CC[C@H]6N4CC[C@@H](C(=O)NS(=O)(=O)C5CC5)C4)c3C)c2Cl)cnc1CN1CC[C@@H](O)C1 [Compound 232] |
| ≤ 10 nM | COc1nc(-c2cccc(-c3cccc(-c4nc5cc6c(c(C#N)c5o4)CC[C@H]6N4CC[C@@H](C(=O)NS(=O)(=O)C5(C)CC5)C4)c3Cl)c2C)cnc1CN1CC[C@@H](O)C1 [Compound 233] |
| ≤ 10 nM | COc1nc(-c2cccc(-c3cccc(-c4nc5cc6c(c(C#N)c5o4)CC[C@H]6N4CC[C@@H](C(=O)NS(=O)(=O)C5(C)CC5)C4)c3C)c2Cl)cnc1CN1CC[C@@H](O)C1 [Compound 234] |
| ≤ 10 nM | Cc1c(-c2nc3cc4c(c(C#N)c3o2)CC[C@H]4N2CC[C@@H](C(=O)O)C2)cccc1-c1cccc(Nc2nccc3cc(CN4CC[C@@H](O)C4)cnc23)c1Cl [Compound 235] |
| ≤ 10 nM | N#Cc1c2c(cc3nc(-c4cccc(-c5cccc(Nc6nccc7cc(CN8CC[C@@H](O)C8)cnc67)c5Cl)c4Cl)oc13)[C@H](N1CC[C@@H](C(=O)NS(=O)(=O)C3CC3)C1)CC2 [Compound 236] |
| ≤ 10 nM | Cc1c(Nc2nccc3cc(CN4CC[C@@H](O)C4)cnc23)cccc1-c1cccc(-c2nc3cc4c(c(C#N)c3o2)CC[C@H]4N2CC[C@@H](C(=O)NS(=O)(=O)C3CC3)C2)c1Cl [Compound 237] |
| ≤ 10 nM | Cc1c(-c2nc3cc4c(c(C#N)c3o2)CC[C@H]4N2CC[C@@H](C(=O)NS(=O)(=O)C3CC3)C2)cccc1-c1cccc(Nc2nccc3cc(CN4CC[C@@H](O)C4)cnc23)c1Cl [Compound 238] |
| ≤ 10 nM | Cc1c(Nc2nccc3cc(CN4CC[C@@H](O)C4)cnc23)cccc1-c1cccc(-c2nc3cc4c(c(C#N)c3o2)CC[C@H]4N2CC[C@@H](C(=O)NS(=O)(=O)C3(C)CC3)C2)c1C [Compound 239] |

| IC50 | SMILES |
| --- | --- |
| ≤ 10 nM | CC1(S(=O)(=O)NC(=O)[C@@H]2CCN([C@@H]3CCc4c3cc3nc(-c5cccc(-c6cccc(Nc7nccc8cc(CN9CC[C@@H](O)C9)cnc78)c6Cl)c5Cl)oc3c4C#N)C2)CC1 [Compound 240] |
| ≤ 10 nM | Cc1c(Nc2nccc3cc(CN4CC[C@@H](O)C4)cnc23)cccc1-c1cccc(-c2nc3cc4c(c(C#N)c3o2)CC[C@H]4N2CC[C@@H](C(=O)NS(=O)(=O)C3(C)CC3)C2)c1Cl [Compound 241] |
| ≤ 10 nM | Cc1c(-c2nc3cc4c(c(C#N)c3o2)CC[C@H]4N2CC[C@@H](C(=O)NS(=O)(=O)C3(C)CC3)C2)cccc1-c1cccc(Nc2nccc3cc(CN4CC[C@@H](O)C4)cnc23)c1Cl [Compound 242] |
| ≤ 10 nM | Cc1c(Nc2nccc3cc(CN4CC[C@@H](O)C4)cnc23)cccc1-c1cccc(-c2cc3cc4c(c(C#N)c3o2)CC[C@@H]4N2CC[C@@H](C(=O)O)C2)c1C [Compound 243] |
| ≤ 10 nM | Cc1c(Nc2nccc3cc(CN4CC[C@@H](O)C4)cnc23)cccc1-c1cccc(-c2cc3cc4c(c(C#N)c3o2)CC[C@H]4N2CC[C@@H](C(=O)O)C2)c1C [Compound 244] |
| ≤ 10 nM | N#Cc1c2c(cc3cc(-c4cccc(-c5cccc(Nc6nccc7cc(CN8CC[C@@H](O)C8)cnc67)c5Cl)c4Cl)oc13)[C@H](N1CC[C@@H](C(=O)O)C1)CC2 [Compound 245] |
| ≤ 10 nM | Cc1c(Nc2nccc3cc(CN4CC[C@@H](O)C4)cnc23)cccc1-c1cccc(-c2cc3cc4c(c(C#N)c3o2)CC[C@H]4N2CC[C@@H](C(=O)O)C2)c1Cl [Compound 246] |
| ≤ 10 nM | Cc1c(-c2cc3cc4c(c(C#N)c3o2)CC[C@H]4N2CC[C@@H](C(=O)O)C2)cccc1-c1cccc(Nc2nccc3cc(CN4CC[C@@H](O)C4)cnc23)c1Cl [Compound 247] |
| ≤ 10 nM | Cc1c(Nc2nccc3cc(CN4CC[C@@H](O)C4)cnc23)cccc1-c1cccc(-c2cc3cc4c(c(C#N)c3o2)CC[C@H]4N2CC[C@@H](C(=O)NS(=O)(=O)C3CC3)C2)c1C [Compound 248] |
| ≤ 10 nM | N#Cc1c2c(cc3cc(-c4cccc(-c5cccc(Nc6nccc7cc(CN8CC[C@@H](O)C8)cnc67)c5Cl)c4Cl)oc13)[C@H](N1CC[C@@H](C(=O)NS(=O)(=O)C3CC3)C1)CC2 [Compound 249] |
| ≤ 10 nM | Cc1c(Nc2nccc3cc(CN4CC[C@@H](O)C4)cnc23)cccc1-c1cccc(-c2cc3cc4c(c(C#N)c3o2)CC[C@H]4N2CC[C@@H](C(=O)NS(=O)(=O)C3CC3)C2)c1Cl [Compound 250] |
| ≤ 10 nM | Cc1c(-c2cc3cc4c(c(C#N)c3o2)CC[C@H]4N2CC[C@@H](C(=O)NS(=O)(=O)C3CC3)C2)cccc1-c1cccc(Nc2nccc3cc(CN4CC[C@@H](O)C4)cnc23)c1Cl [Compound 251] |
| ≤ 10 nM | Cc1c(Nc2nccc3cc(CN4CC[C@@H](O)C4)cnc23)cccc1-c1cccc(-c2cc3cc4c(c(C#N)c3o2)CC[C@H]4N2CC[C@@H](C(=O)NS(=O)(=O)C3(C)CC3)C2)c1C [Compound 252] |
| ≤ 10 nM | CC1(S(=O)(=O)NC(=O)[C@@H]2CCN([C@@H]3CCc4c3cc3cc(-c5cccc(-c6cccc(Nc7nccc8cc(CN9CC[C@@H](O)C9)cnc78)c6Cl)c5Cl)oc3c4C#N)C2)CC1 [Compound 253] |
| ≤ 10 nM | COc1nc(-c2cccc(-c3cccc(-c4cc5cc6c(c(C#N)c5o4)CC[C@H]6N4CC[C@@H](C(=O)O)C4)c3C)c2C)cnc1CN1CC[C@@H](O)C1 [Compound 256] |
| ≤ 10 nM | COc1nc(-c2cccc(-c3cccc(-c4cc5cc6c(c(C#N)c5o4)CC[C@H]6N4CC[C@@H](C(=O)O)C4)c3Cl)c2Cl)cnc1CN1CC[C@@H](O)C1 [Compound 257] |
| ≤ 10 nM | COc1nc(-c2cccc(-c3cccc(-c4cc5cc6c(c(C#N)c5o4)CC[C@H]6N4CC[C@@H](C(=O)O)C4)c3Cl)c2C)cnc1CN1CC[C@@H](O)C1 [Compound 258] |
| ≤ 10 nM | COc1nc(-c2cccc(-c3cccc(-c4cc5cc6c(c(C#N)c5o4)CC[C@H]6N4CC[C@@H](C(=O)O)C4)c3C)c2Cl)cnc1CN1CC[C@@H](O)C1 [Compound 259] |
| ≤ 10 nM | COc1nc(-c2cccc(-c3cccc(-c4cc5cc6c(c(C#N)c5o4)CC[C@H]6N4CC[C@@H](C(=O)NS(=O)(=O)C5CC5)C4)c3C)c2C)cnc1CN1CC[C@@H](O)C1 [Compound 260] |
| ≤ 10 nM | COc1nc(-c2cccc(-c3cccc(-c4cc5cc6c(c(C#N)c5o4)CC[C@H]6N4CC[C@@H](C(=O)NS(=O)(=O)C5CC5)C4)c3Cl)c2Cl)cnc1CN1CC[C@@H](O)C1 [Compound 261] |
